As usually defined, the IC50 is the concentration that inhibits the measured activity by half.

Results on 1 compound are retold here after patent US8697721B2, “Chromen-2-one derivatives and their use as monoamine neurotransmitter re-uptake inhibitors” (Aniona APS, priority 2009, dated 2014).

Counter-ions that a name gives are not always drawn.

Assay type in all cases: biochemical
Experiment [1] addresses T1, serotonine (5-HT) reuptake in synaptosomes (Rattus norvegicus, UniProt P31652).
T1 construct: in synaptosomes as described in WO 97/16451; from tissue
The experiment is described as follows: In vitro inhibition of 3H-5-HT reuptake in synaptosomes. As to conditions: mean ± spread (n), read-out: 5-HT-uptake IC50. As for the experimental part:
(§1) The compound was tested for its ability to inhibit the reuptake of the monoamine neurotransmitters dopamine (DA) noradrenaline (NA) and serotonine (5-HT) in synaptosomes as described in WO 97/16451.
(§2) The test values are given as IC50 (the concentration (μM) of the test substance which inhibits the specific binding of ^3H-DA, ^3H-NA, or ^3H-5-HT by 50%).

For experiment [2], the target named is T2, dopamine (DA) reuptake in synaptosomes (Rattus norvegicus, UniProt P23977).
T2 construct: in synaptosomes as described in WO 97/16451; from tissue
The experiment is described as follows: In vitro inhibition of 3H-DA reuptake in synaptosomes. The conditions noted are these: mean ± spread (n), read-out: DA-uptake IC50. As for the experimental part:
as §1, §2

In experiment [3] the target is T3, noradrenaline (NA) reuptake in synaptosomes (Rattus norvegicus, UniProt Q63380).
T3 construct: in synaptosomes as described in WO 97/16451; from tissue
As to the kind of experiment: In vitro inhibition of 3H-NA reuptake in synaptosomes. As to conditions: mean ± spread (n), read-out: NA-uptake IC50. As for the experimental part:
as §1, §2

T2 sequence (P23977 whole entry): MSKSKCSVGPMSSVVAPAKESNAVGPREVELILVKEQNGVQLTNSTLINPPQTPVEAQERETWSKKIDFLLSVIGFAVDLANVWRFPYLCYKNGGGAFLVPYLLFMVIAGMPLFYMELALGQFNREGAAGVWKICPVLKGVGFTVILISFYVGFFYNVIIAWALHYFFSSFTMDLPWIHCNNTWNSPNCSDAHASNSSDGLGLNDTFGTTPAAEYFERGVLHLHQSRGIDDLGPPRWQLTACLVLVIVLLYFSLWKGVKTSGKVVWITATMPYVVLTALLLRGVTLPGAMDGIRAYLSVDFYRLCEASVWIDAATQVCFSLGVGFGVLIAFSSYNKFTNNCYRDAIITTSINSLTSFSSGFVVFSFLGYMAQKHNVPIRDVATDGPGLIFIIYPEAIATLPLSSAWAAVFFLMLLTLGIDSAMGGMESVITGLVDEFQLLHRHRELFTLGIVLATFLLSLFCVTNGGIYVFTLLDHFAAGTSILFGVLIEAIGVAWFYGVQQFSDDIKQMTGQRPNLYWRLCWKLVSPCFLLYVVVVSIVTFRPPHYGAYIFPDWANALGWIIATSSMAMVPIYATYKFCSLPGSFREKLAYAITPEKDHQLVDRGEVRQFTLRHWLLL
T1 sequence (P31652 whole entry): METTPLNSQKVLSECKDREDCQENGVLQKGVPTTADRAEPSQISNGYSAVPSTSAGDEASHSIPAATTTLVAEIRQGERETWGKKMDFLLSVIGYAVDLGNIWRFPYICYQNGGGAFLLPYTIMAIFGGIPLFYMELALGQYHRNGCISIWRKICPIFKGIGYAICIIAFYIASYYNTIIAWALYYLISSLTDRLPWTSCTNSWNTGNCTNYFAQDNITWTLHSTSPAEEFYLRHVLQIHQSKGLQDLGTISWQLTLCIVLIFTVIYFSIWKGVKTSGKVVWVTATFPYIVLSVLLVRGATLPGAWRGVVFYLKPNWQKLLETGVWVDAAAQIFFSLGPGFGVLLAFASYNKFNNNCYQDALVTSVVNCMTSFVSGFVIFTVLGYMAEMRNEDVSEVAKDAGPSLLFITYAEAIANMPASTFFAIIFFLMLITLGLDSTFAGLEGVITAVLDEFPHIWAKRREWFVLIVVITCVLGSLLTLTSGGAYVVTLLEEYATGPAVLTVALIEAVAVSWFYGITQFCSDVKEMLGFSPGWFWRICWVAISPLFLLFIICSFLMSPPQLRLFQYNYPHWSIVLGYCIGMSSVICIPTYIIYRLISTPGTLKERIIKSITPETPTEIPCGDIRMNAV
T3 sequence (Q63380 1-617): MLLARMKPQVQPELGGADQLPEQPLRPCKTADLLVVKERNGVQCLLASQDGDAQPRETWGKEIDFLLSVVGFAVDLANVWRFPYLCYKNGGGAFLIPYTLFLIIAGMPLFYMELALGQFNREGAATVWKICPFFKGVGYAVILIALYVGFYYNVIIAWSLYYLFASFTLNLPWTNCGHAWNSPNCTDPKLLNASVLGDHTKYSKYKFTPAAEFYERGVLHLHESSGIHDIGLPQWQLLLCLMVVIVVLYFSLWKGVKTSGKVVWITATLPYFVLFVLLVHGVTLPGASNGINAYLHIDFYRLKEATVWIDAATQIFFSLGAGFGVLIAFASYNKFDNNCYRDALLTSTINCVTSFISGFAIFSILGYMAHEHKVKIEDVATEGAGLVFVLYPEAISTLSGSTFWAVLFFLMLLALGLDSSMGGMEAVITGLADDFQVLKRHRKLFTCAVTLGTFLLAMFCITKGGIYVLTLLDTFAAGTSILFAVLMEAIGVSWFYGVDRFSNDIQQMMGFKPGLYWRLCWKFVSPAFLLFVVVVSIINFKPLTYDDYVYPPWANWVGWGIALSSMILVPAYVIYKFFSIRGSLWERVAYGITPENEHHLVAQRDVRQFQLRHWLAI

Turning to `Cc1cc2ccc(O[C@@H]3C[C@H]4CC[C@@H](C3)N4)cc2oc1=O` [Compound 1.1, exo-7-[(8-Aza-bicyclo[3.2.1]oct-3-yl)oxy]-3-methyl-chromen-2-one hydrochloric Acid Salt], the values for the IC50 in experiment [1], in experiment [2] and in experiment [3] were 0.76 nM, 170 ± 21 nM and 11 ± 6.1 nM, respectively.
